Values of other authors in US20050147663A1, “Method of treatment for improved bioavailability” (priority 2003, published 2005).

Assays:
[1] = enhanced by food in some instances, reduced in others
[2] = standard breakfast; capsules
[3] = delayed release formulations, drug given 30 minutes after food

bioavailability affected by the presence of food [1]	SMILES	other results
affected	CC(C)c1nc(CN(C)C(=O)N[C@H](C(=O)N[C@@H](Cc2ccccc2)C[C@H](O)[C@H](Cc2ccccc2)NC(=O)OCc2cncs2)C(C)C)cs1 [ritonavir]	–
affected	CC(C)(C)NC(=O)[C@@H]1CN(Cc2cccnc2)CCN1C[C@@H](O)C[C@@H](Cc1ccccc1)C(=O)N[C@H]1c2ccccc2C[C@H]1O [indinavir]	–
affected	CC(C)(C)NC(=O)[C@@H]1C[C@@H]2CCCC[C@@H]2CN1C[C@@H](O)[C@H](Cc1ccccc1)NC(=O)[C@H](CC(N)=O)NC(=O)c1ccc2ccccc2n1 [saquinavir]	–
affected	Nc1ccn([C@@H]2CS[C@H](CO)O2)c(=O)n1 [lamivudine]	–
affected	CC(C)CN(C[C@@H](O)[C@H](Cc1ccccc1)NC(=O)O[C@H]1CCOC1)S(=O)(=O)c1ccc(N)cc1 [amprenavir]	–
affected	Cc1cn([C@H]2C[C@H](N=[N+]=[N-])[C@@H](CO)O2)c(=O)[nH]c1=O [zidovudine]	–
–	Cc1c(OCC(F)(F)F)ccnc1C[S+]([O-])c1nc2ccccc2[nH]1 (centres unmarked) [lansoprazole]	AUC diminished [3]: 50-70%; Cmax diminished [3]: 50-70%
–	COc1ccc2[nH]c([S+]([O-])Cc3ncc(C)c(OC)c3C)nc2c1 (centres unmarked) [omeprazole]	reduction in Cmax (20 mg delayed release capsule, administered with applesauce): 25%; food effect (40 mg delayed release capsule, with applesauce): does not show a food effect
–	COc1ccc2[n-]c([S+]([O-])Cc3ncc(C)c(OC)c3C)nc2c1.COc1ccc2[n-]c([S+]([O-])Cc3ncc(C)c(OC)c3C)nc2c1.[Mg+2] (centres unmarked) [esomeprazole magnesium]	decrease of the drug AUC (delayed release capsules, administration after food intake): 43-53%
–	C[C@H]1c2cccc(O)c2C(=O)C2=C(O)[C@]3(O)C(=O)C(C(N)=O)=C(O)[C@@H](N(C)C)[C@@H]3[C@@H](O)[C@@H]21 [doxycycline]	bioavailability as judged by AUC and Cmax [2]: reduced
affected	O=C1Nc2ccc(Cl)cc2[C@@](C#CC2CC2)(C(F)(F)F)O1 [efavirenz]	–
affected	Cc1c(O)cccc1C(=O)N[C@@H](CSc1ccccc1)[C@H](O)CN1C[C@H]2CCCC[C@H]2C[C@H]1C(=O)NC(C)(C)C [nelfinavir]	–
–	COc1ccnc(C[S+]([O-])c2nc3ccc(OC(F)F)cc3[nH]2)c1OC (centres unmarked) [pantoprazole sodium]	Tmax variability (delayed release product): highly variable; Tmax change when given with food (delayed release product, given with food): can increase significantly
affected	Nc1ccn([C@H]2CC[C@@H](CO)O2)c(=O)n1 [zalcitabine]	–
